Here are results for four molecules from paper PMC4975031, “A multifunctional GH39 glycoside hydrolase from the anaerobic gut fungus Orpinomyces sp. strain C1A” (PeerJ, 2016).

Bounds are passed on as bounds.

Data set [1] has as its target T1, Bgxg1 (Pecoramyces ruminantium, UniProt A0A0U3AYH9).
T1 construct: codon-optimised fragment, 939 bp [sic], nucleotide positions 67-1,035 of transcript m.21910 (signal peptide predicted in full-length product)
The experiment in a line: p-nitrophenol release, Lineweaver-Burk. It is filed as biochemical. Conditions: pH 6.0, sodium acetate buffer, 39 °C; printed BDL (below detection limit, 500 nM). From the text:
(§1) p-nitrophenol release, Lineweaver-Burk on Bgxg1

The target of data set [2] is T1, Bgxg1. The experiment in a line: substrate competition: PNPG hydrolysis in presence of xylobiose. Conditions: read-out: Relative specific activity (%). It is filed as biochemical. The source says:
substrate competition: PNPG hydrolysis in presence of xylobiose on Bgxg1

In data set [3] the test system is T2, O=[N+]([O-])c1ccc(O[C@@H]2OC[C@@H](O)[C@H](O)[C@H]2O)cc1.
T2 construct: codon-optimised fragment, 939 bp [sic], nucleotide positions 67-1,035 of transcript m.21910 (signal peptide predicted in full-length product)
The experiment in a line: p-nitrophenol release, Lineweaver-Burk. The conditions noted are these: pH 6.0, sodium acetate buffer, 39 °C. It is filed as biochemical, Pecoramyces ruminantium.
Excerpt: as §1

T1 sequence (A0A0U3AYH9 23-335 limits assumed): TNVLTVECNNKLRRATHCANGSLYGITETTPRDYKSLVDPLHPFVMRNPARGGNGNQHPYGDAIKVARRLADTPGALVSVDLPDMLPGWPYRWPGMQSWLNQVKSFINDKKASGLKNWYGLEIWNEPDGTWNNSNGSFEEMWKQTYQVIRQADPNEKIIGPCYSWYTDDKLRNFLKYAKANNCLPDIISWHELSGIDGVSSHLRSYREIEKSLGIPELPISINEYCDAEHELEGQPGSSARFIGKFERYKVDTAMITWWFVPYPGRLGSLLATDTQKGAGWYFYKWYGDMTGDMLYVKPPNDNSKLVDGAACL

The term Km denotes the concentration of substrate that gives half-maximal velocity. As for `O=[N+]([O-])c1ccc(O[C@@H]2O[C@H](CO)[C@@H](O)[C@H](O)[C@H]2O)cc1` [PNPG, p-nitrophenyl-β-D-glucopyranoside], the Km at Bgxg1 [1] was under 0.5 µM.
For the molecule `O=[N+]([O-])c1ccc(O[C@@H]2O[C@H](CO)[C@H](O)[C@H](O)[C@H]2O)cc1` [PNPGal, p-nitrophenyl-β-D-galactopyranoside], on Bgxg1 [1], the Km is under 0.5 µM.
As for `OC1OC[C@@H](O[C@@H]2OC[C@@H](O)[C@H](O)[C@H]2O)[C@H](O)[C@H]1O` (some centres unmarked) [xylobiose], on Bgxg1 [2], the activity at 20000 µM is 57.2%.
The Vmax is the rate approached at saturating substrate. Turning to Bgxg1 (Pecoramyces ruminantium), in data set [3], the Km was 4.85 ± 0.62 µM and the Vmax came out at 127 µmol/min/mg.
